In the NIST ThermoML archive (doi:10.1021/acs.jced.9b00311):
± gives the expanded uncertainty stated by the source.

Assays:
[1] = Liquid; for mass density: Vibrating tube method; for speed of sound: Frequency=3 MHz, Pulse-echo method
[2] = xn = mol fraction of the nth substance listed; details: Liquid, Vibrating tube method, x1 = 1

SMILES	mass density ([1]; 303.15 K, 10000 kPa) [kg/m3]	mass density ([1]; 303.15 K, 20000 kPa) [kg/m3]	mass density ([1]; 303.15 K, 30000 kPa) [kg/m3]	mass density ([1]; 303.15 K, 40000 kPa) [kg/m3]	mass density ([1]; 303.15 K, 50000 kPa) [kg/m3]	mass density ([1]; 303.15 K, 60000 kPa) [kg/m3]	mass density ([1]; 303.15 K, 70000 kPa) [kg/m3]	mass density ([1]; 313.15 K, 10000 kPa) [kg/m3]	mass density ([1]; 313.15 K, 20000 kPa) [kg/m3]	mass density ([1]; 313.15 K, 30000 kPa) [kg/m3]	mass density ([1]; 313.15 K, 40000 kPa) [kg/m3]	mass density ([1]; 313.15 K, 50000 kPa) [kg/m3]	mass density ([1]; 313.15 K, 60000 kPa) [kg/m3]	mass density ([1]; 313.15 K, 70000 kPa) [kg/m3]	further results
O=C=O [carbon dioxide]	770.5 ± 1.8	890.1 ± 0.5	949.2 ± 0.5	989.1 ± 0.5	1020 ± 0.5	1045.8 ± 0.5	1068 ± 0.5	628.9 ± 1.9	839.3 ± 1.1	909.2 ± 0.6	955.5 ± 0.6	990.5 ± 0.5	1019 ± 0.5	1043.5 ± 0.5	
O=C=O [carbon dioxide] + CCCCCCCCCCCC															mass density ([2]; 303.15 K, 10000 kPa): 770.5 ± 1.8 kg/m3; mass density ([2]; 303.15 K, 20000 kPa): 890.1 ± 0.5 kg/m3; mass density ([2]; 303.15 K, 30000 kPa): 949.2 ± 0.5 kg/m3; mass density ([2]; 303.15 K, 40000 kPa): 989.1 ± 0.5 kg/m3; mass density ([2]; 303.15 K, 50000 kPa): 1020 ± 0.5 kg/m3; mass density ([2]; 303.15 K, 60000 kPa): 1045.8 ± 0.5 kg/m3; mass density ([2]; 303.15 K, 70000 kPa): 1068 ± 0.5 kg/m3; mass density ([2]; 313.15 K, 10000 kPa): 628.9 ± 1.9 kg/m3; mass density ([2]; 313.15 K, 20000 kPa): 839.3 ± 1.1 kg/m3; mass density ([2]; 313.15 K, 30000 kPa): 909.2 ± 0.6 kg/m3; mass density ([2]; 313.15 K, 40000 kPa): 955.5 ± 0.6 kg/m3; mass density ([2]; 313.15 K, 50000 kPa): 990.5 ± 0.5 kg/m3; mass density ([2]; 313.15 K, 60000 kPa): 1019 ± 0.5 kg/m3; mass density ([2]; 313.15 K, 70000 kPa): 1043.5 ± 0.5 kg/m3
CCCCCCCCCCCC [dodecane]	748.5 ± 0.8	755.1 ± 0.9	761.3 ± 1	766.9 ± 1	772 ± 1	776.8 ± 1.1	781.4 ± 1.1	741.6 ± 0.8	748.5 ± 0.9	754.8 ± 0.9	760.8 ± 1	766.3 ± 1.1	771.5 ± 1.1	776.4 ± 1.1	speed of sound ([1]; 303.15 K, 10000 kPa): 1318.5 ± 1.8 m/s; speed of sound ([1]; 303.15 K, 20000 kPa): 1372.4 ± 1.8 m/s; speed of sound ([1]; 303.15 K, 30000 kPa): 1421.4 ± 1.8 m/s; speed of sound ([1]; 303.15 K, 40000 kPa): 1468.5 ± 1.9 m/s; speed of sound ([1]; 303.15 K, 50000 kPa): 1512.3 ± 1.9 m/s; speed of sound ([1]; 303.15 K, 60000 kPa): 1553.7 ± 1.9 m/s; speed of sound ([1]; 303.15 K, 70000 kPa): 1593.3 ± 2 m/s; speed of sound ([1]; 313.15 K, 10000 kPa): 1281.7 ± 1.8 m/s; speed of sound ([1]; 313.15 K, 20000 kPa): 1337.9 ± 1.8 m/s; speed of sound ([1]; 313.15 K, 30000 kPa): 1389.6 ± 1.8 m/s; speed of sound ([1]; 313.15 K, 40000 kPa): 1436.8 ± 1.8 m/s; speed of sound ([1]; 313.15 K, 50000 kPa): 1481.5 ± 1.9 m/s; speed of sound ([1]; 313.15 K, 60000 kPa): 1524.2 ± 1.9 m/s; speed of sound ([1]; 313.15 K, 70000 kPa): 1564.6 ± 1.9 m/s
